Test: xn = mol fraction of the nth substance listed
Details: Liquid

CN(CCO)CCO [N-methyldiethanolamine] + O
Details | mass density [kg/m3]
323.09 K, 3015 kPa, x1 = 0.1302 | 1027.4
323.09 K, 3997 kPa, x1 = 0.0369 | 1002.4
323.09 K, 4003 kPa, x1 = 0.1302 | 1027.8
323.09 K, 4998 kPa, x1 = 0.0369 | 1002.7
323.09 K, 4999 kPa, x1 = 0.1302 | 1028.1
323.09 K, 5998 kPa, x1 = 0.1302 | 1028.5
323.09 K, 6003 kPa, x1 = 0.0369 | 1003.1
323.09 K, 6993 kPa, x1 = 0.0369 | 1003.5
323.09 K, 6998 kPa, x1 = 0.1302 | 1028.9
323.09 K, 7994 kPa, x1 = 0.0369 | 1004
323.09 K, 7999 kPa, x1 = 0.1302 | 1029.3
323.09 K, 8996 kPa, x1 = 0.0369 | 1004.4
323.09 K, 8998 kPa, x1 = 0.1302 | 1029.7
323.09 K, 9995 kPa, x1 = 0.1302 | 1030.1
323.09 K, 9997 kPa, x1 = 0.0369 | 1004.8
323.09 K, 10986 kPa, x1 = 0.0369 | 1005.2
323.09 K, 10997 kPa, x1 = 0.1302 | 1030.4
323.09 K, 11988 kPa, x1 = 0.0369 | 1005.6
323.09 K, 11998 kPa, x1 = 0.1302 | 1030.8
323.09 K, 12997 kPa, x1 = 0.0369 | 1006
323.09 K, 13005 kPa, x1 = 0.1302 | 1031.2
323.09 K, 13999 kPa, x1 = 0.0369 | 1006.4
323.09 K, 14003 kPa, x1 = 0.1302 | 1031.6
323.09 K, 14989 kPa, x1 = 0.0369 | 1006.8
323.09 K, 14990 kPa, x1 = 0.1302 | 1032
323.09 K, 15996 kPa, x1 = 0.1302 | 1032.3
323.09 K, 16002 kPa, x1 = 0.0369 | 1007.1
323.09 K, 16988 kPa, x1 = 0.0369 | 1007.6
323.09 K, 16999 kPa, x1 = 0.1302 | 1032.7
323.09 K, 17990 kPa, x1 = 0.0369 | 1007.9
323.09 K, 17996 kPa, x1 = 0.1302 | 1033.1
323.09 K, 18988 kPa, x1 = 0.1302 | 1033.4
323.09 K, 18996 kPa, x1 = 0.0369 | 1008.3
323.09 K, 19995 kPa, x1 = 0.0369 | 1008.7
323.09 K, 20004 kPa, x1 = 0.1302 | 1033.8
323.1 K, 1009 kPa, x1 = 0.0893 | 1019.6
323.1 K, 2006 kPa, x1 = 0.0893 | 1020
323.1 K, 3012 kPa, x1 = 0.0893 | 1020.4
323.1 K, 4011 kPa, x1 = 0.0893 | 1020.8
323.1 K, 5002 kPa, x1 = 0.0893 | 1021.2
323.1 K, 5996 kPa, x1 = 0.0893 | 1021.6
323.1 K, 7006 kPa, x1 = 0.0893 | 1022
323.1 K, 8004 kPa, x1 = 0.0893 | 1022.3
323.1 K, 8991 kPa, x1 = 0.0893 | 1022.7
323.1 K, 9999 kPa, x1 = 0.0893 | 1023.1
323.1 K, 10993 kPa, x1 = 0.0893 | 1023.5
323.1 K, 11992 kPa, x1 = 0.0893 | 1023.8
323.1 K, 13001 kPa, x1 = 0.0893 | 1024.2
323.1 K, 13990 kPa, x1 = 0.0893 | 1024.6
323.1 K, 14980 kPa, x1 = 0.0893 | 1025
323.1 K, 16002 kPa, x1 = 0.0893 | 1025.3
323.1 K, 16990 kPa, x1 = 0.0893 | 1025.7
323.1 K, 17994 kPa, x1 = 0.0893 | 1026.1
323.1 K, 18999 kPa, x1 = 0.0893 | 1026.5
323.1 K, 20002 kPa, x1 = 0.0893 | 1026.8
333.03 K, 1009 kPa, x1 = 0.1302 | 1019.4
333.03 K, 1015 kPa, x1 = 0.0607 | 1006.4
333.03 K, 1998 kPa, x1 = 0.0607 | 1006.8
333.03 K, 2002 kPa, x1 = 0.1302 | 1019.8
333.03 K, 2997 kPa, x1 = 0.1302 | 1020.2
333.03 K, 3013 kPa, x1 = 0.0607 | 1007.2
333.03 K, 3993 kPa, x1 = 0.1302 | 1020.6
333.03 K, 4037 kPa, x1 = 0.0607 | 1007.6
333.03 K, 4997 kPa, x1 = 0.1302 | 1021
333.03 K, 5116 kPa, x1 = 0.0607 | 1008.1
333.03 K, 6002 kPa, x1 = 0.1302 | 1021.4
333.03 K, 6004 kPa, x1 = 0.0607 | 1008.4
333.03 K, 6992 kPa, x1 = 0.0607 | 1008.8
333.03 K, 6992 kPa, x1 = 0.1302 | 1021.8
333.03 K, 8003 kPa, x1 = 0.0607 | 1009.1
333.03 K, 8013 kPa, x1 = 0.1302 | 1022.2
333.03 K, 8975 kPa, x1 = 0.0607 | 1009.6
333.03 K, 9016 kPa, x1 = 0.1302 | 1022.6
333.03 K, 9983 kPa, x1 = 0.0607 | 1009.9
333.03 K, 9993 kPa, x1 = 0.1302 | 1023
333.03 K, 10989 kPa, x1 = 0.1302 | 1023.4
333.03 K, 11029 kPa, x1 = 0.0607 | 1010.4
333.03 K, 12007 kPa, x1 = 0.1302 | 1023.8
333.03 K, 12015 kPa, x1 = 0.0607 | 1010.7
333.03 K, 13003 kPa, x1 = 0.1302 | 1024.1
333.03 K, 13028 kPa, x1 = 0.0607 | 1011.1
333.03 K, 13995 kPa, x1 = 0.1302 | 1024.5
333.03 K, 14020 kPa, x1 = 0.0607 | 1011.5
333.03 K, 15011 kPa, x1 = 0.1302 | 1024.9
333.03 K, 15022 kPa, x1 = 0.0607 | 1011.9
333.03 K, 15996 kPa, x1 = 0.1302 | 1025.3
333.03 K, 16006 kPa, x1 = 0.0607 | 1012.3
333.03 K, 16996 kPa, x1 = 0.0607 | 1012.7
333.03 K, 17011 kPa, x1 = 0.1302 | 1025.7
333.03 K, 17985 kPa, x1 = 0.1302 | 1026.1
333.03 K, 18013 kPa, x1 = 0.0607 | 1013.1
333.03 K, 18991 kPa, x1 = 0.1302 | 1026.4
333.03 K, 19018 kPa, x1 = 0.0607 | 1013.4
333.03 K, 19965 kPa, x1 = 0.0607 | 1013.8
333.03 K, 19993 kPa, x1 = 0.1302 | 1026.8
333.04 K, 1012 kPa, x1 = 0.0369 | 995.9
333.04 K, 1999 kPa, x1 = 0.0369 | 996.3
333.04 K, 2995 kPa, x1 = 0.0369 | 996.7
333.04 K, 4008 kPa, x1 = 0.0369 | 997.2
333.04 K, 4992 kPa, x1 = 0.0369 | 997.6
333.04 K, 5983 kPa, x1 = 0.0369 | 998
333.04 K, 6994 kPa, x1 = 0.0369 | 998.4
333.04 K, 7997 kPa, x1 = 0.0369 | 998.8
333.04 K, 8994 kPa, x1 = 0.0369 | 999.2
333.04 K, 9994 kPa, x1 = 0.0369 | 999.6

Reference: the NIST ThermoML archive (doi:10.1021/je700287u)
